Reference: the NIST ThermoML archive (doi:10.1021/je800110r)
Where “and” joins values, the source holds several entries; their conditions need not be identical. Identical values can stand only once. Numbers after ± are expanded uncertainties.

Conditions: Liquid, Vibrating tube method

In the case of `CCCCCCCCCC` [decane], the mass density (283.14 K, 21786 kPa) is reported as 752.1 ± 2 kg/m3, the mass density (283.14 K, 21835 kPa) is reported as 752.2 ± 2 kg/m3 and the mass density (283.14 K, 21866 kPa) is reported as 752.3 ± 2 kg/m3. For the same compound, the mass density (283.14 K, 22948 kPa) was 752.7 ± 2 kg/m3, the mass density (283.14 K, 22974 kPa) was 752.9 ± 2 kg/m3 and the mass density (283.14 K, 23083 kPa) was 752.9 ± 2 kg/m3. It also gave a mass density (283.14 K, 24091 kPa) of 753.6 ± 2 kg/m3, a mass density (283.14 K, 24111 kPa) of 753.6 ± 2 kg/m3 and a mass density (283.14 K, 24206 kPa) of 753.6 ± 2 kg/m3. It also gave a mass density (283.14 K, 25452 kPa) of 754.4 ± 2 kg/m3, a mass density (283.14 K, 27407 kPa) of 755.5 ± 2.1 kg/m3 and a mass density (283.14 K, 27430 kPa) of 755.5 ± 2.1 kg/m3. The mass density (283.14 K, 27471 kPa) was 755.7 ± 2.1 kg/m3, the mass density (283.14 K, 27497 kPa) was 755.6 ± 2.1 kg/m3 and the mass density (283.14 K, 27531 kPa) was 755.7 ± 2.1 kg/m3. It also gave a mass density (283.14 K, 27558 kPa) of 755.6 ± 2.1 kg/m3, a mass density (283.14 K, 27588 kPa) of 755.8 ± 2.1 kg/m3 and a mass density (283.14 K, 29091 kPa) of 756.5 ± 2.1 kg/m3. It also gave a mass density (283.14 K, 29172 kPa) of 756.6 ± 2.1 kg/m3, a mass density (283.14 K, 29227 kPa) of 756.6 ± 2.1 kg/m3 and a mass density (283.14 K, 29531 kPa) of 756.9 ± 2.1 kg/m3. It also gave a mass density (283.14 K, 29628 kPa) of 756.9 ± 2.1 kg/m3, a mass density (283.14 K, 29720 kPa) of 756.8 ± 2.1 kg/m3 and a mass density (283.14 K, 29749 kPa) of 756.9 ± 2.1 kg/m3. The mass density (283.14 K, 29785 kPa) was 756.9 ± 2.1 kg/m3, the mass density (283.14 K, 29818 kPa) was 757 ± 2.1 kg/m3 and the mass density (283.14 K, 29843 kPa) was 756.9 ± 2.1 kg/m3. The mass density (283.14 K, 29867 kPa) was 757.1 ± 2.1 kg/m3, the mass density (283.14 K, 29895 kPa) was 757 ± 2.1 kg/m3 and the mass density (283.14 K, 29928 kPa) was 757.2 ± 2.1 kg/m3. It also gave a mass density (283.14 K, 29961 kPa) of 757 ± 2.1 kg/m3, a mass density (283.14 K, 29990 kPa) of 757.1 ± 2.1 kg/m3 and a mass density (283.14 K, 30019 kPa) of 757.1 ± 2.1 kg/m3. It also gave a mass density (283.14 K, 30044 kPa) of 757.1 ± 2.1 kg/m3, a mass density (283.14 K, 30081 kPa) of 757.1 ± 2.1 kg/m3 and a mass density (283.14 K, 30115 kPa) of 757.2 ± 2.1 kg/m3. It also gave a mass density (283.14 K, 30145 kPa) of 757.1 ± 2.1 kg/m3, a mass density (283.14 K, 30807 kPa) of 757.7 ± 2.1 kg/m3 and a mass density (283.14 K, 30934 kPa) of 757.6 ± 2.1 kg/m3. The mass density (283.14 K, 31526 kPa) was 758 ± 2.1 kg/m3, the mass density (283.14 K, 31540 kPa) was 758 ± 2.1 kg/m3 and the mass density (283.14 K, 31581 kPa) was 758.1 ± 2.1 kg/m3. The mass density (283.14 K, 31898 kPa) was 758.1 ± 2.1 kg/m3, the mass density (283.14 K, 31921 kPa) was 758.2 ± 2.1 kg/m3 and the mass density (283.14 K, 31938 kPa) was 758.2 ± 2.1 kg/m3. It also gave a mass density (283.14 K, 31958 kPa) of 758.3 ± 2.1 kg/m3, a mass density (283.14 K, 31979 kPa) of 758.2 ± 2.1 kg/m3 and a mass density (283.14 K, 32000 kPa) of 758.3 ± 2.1 kg/m3. For the same compound, the mass density (283.14 K, 32020 kPa) was 758.2 ± 2.1 kg/m3, the mass density (283.14 K, 32038 kPa) was 758.2 ± 2.1 kg/m3 and the mass density (283.14 K, 32070 kPa) was 758.2 ± 2.1 kg/m3. For the same compound, the mass density (283.14 K, 32106 kPa) was 758.4 ± 2.1 kg/m3, the mass density (283.14 K, 32127 kPa) was 758.3 ± 2.1 kg/m3 and the mass density (283.14 K, 32164 kPa) was 758.3 ± 2.1 kg/m3. For the same compound, the mass density (283.14 K, 32190 kPa) was 758.4 ± 2.1 kg/m3, the mass density (283.14 K, 32578 kPa) was 758.6 ± 2.1 kg/m3 and the mass density (283.14 K, 33321 kPa) was 759.1 ± 2.1 kg/m3. For the same compound, the mass density (283.14 K, 33347 kPa) was 759 ± 2.1 kg/m3, the mass density (283.14 K, 33367 kPa) was 759 ± 2.1 kg/m3 and the mass density (283.14 K, 33396 kPa) was 759 ± 2.1 kg/m3. For the same compound, the mass density (283.14 K, 33425 kPa) was 758.9 ± 2.1 kg/m3, the mass density (283.14 K, 33445 kPa) was 759 ± 2.1 kg/m3 and the mass density (283.14 K, 33471 kPa) was 759.1 ± 2.1 kg/m3. It also gave a mass density (283.14 K, 33494 kPa) of 759.1 ± 2.1 kg/m3, a mass density (283.14 K, 33514 kPa) of 759 ± 2.1 kg/m3 and a mass density (283.14 K, 34282 kPa) of 759.5 ± 2.1 kg/m3. It also gave a mass density (283.14 K, 34384 kPa) of 759.6 ± 2.1 kg/m3, a mass density (283.14 K, 34405 kPa) of 759.6 ± 2.1 kg/m3 and a mass density (283.14 K, 34424 kPa) of 759.7 ± 2.1 kg/m3. The mass density (283.14 K, 34465 kPa) was 759.7 ± 2.1 kg/m3, the mass density (283.15 K, 312 kPa) was 737.7 ± 2 kg/m3 and 737.6 ± 2 kg/m3 and the mass density (283.15 K, 314 kPa) was 737.5 ± 2 kg/m3. For the same compound, the mass density (283.15 K, 361 kPa) was 737.6 ± 2 kg/m3, the mass density (283.15 K, 417 kPa) was 737.6 ± 2 kg/m3 and the mass density (283.15 K, 446 kPa) was 737.8 ± 2 kg/m3. The mass density (283.15 K, 603 kPa) was 737.9 ± 2 kg/m3, the mass density (283.15 K, 1468 kPa) was 738.4 ± 2 kg/m3 and the mass density (283.15 K, 1599 kPa) was 738.6 ± 2 kg/m3. It also gave a mass density (283.15 K, 1655 kPa) of 738.6 ± 2 kg/m3, a mass density (283.15 K, 1727 kPa) of 738.5 ± 2 kg/m3 and a mass density (283.15 K, 1798 kPa) of 738.8 ± 2 kg/m3. The mass density (283.15 K, 1897 kPa) was 738.7 ± 2 kg/m3, the mass density (283.15 K, 1959 kPa) was 738.9 ± 2 kg/m3 and the mass density (283.15 K, 2028 kPa) was 738.8 ± 2 kg/m3. The mass density (283.15 K, 2118 kPa) was 738.9 ± 2 kg/m3, the mass density (283.15 K, 2175 kPa) was 739 ± 2 kg/m3 and the mass density (283.15 K, 2229 kPa) was 739 ± 2 kg/m3. The mass density (283.15 K, 2291 kPa) was 739.1 ± 2 kg/m3, the mass density (283.15 K, 2327 kPa) was 739.1 ± 2 kg/m3 and the mass density (283.15 K, 2370 kPa) was 739 ± 2 kg/m3. It also gave a mass density (283.15 K, 2425 kPa) of 739.1 ± 2 kg/m3, a mass density (283.15 K, 2520 kPa) of 739.2 ± 2 kg/m3 and a mass density (283.15 K, 2614 kPa) of 739.3 ± 2 kg/m3. It also gave a mass density (283.15 K, 2634 kPa) of 739.3 ± 2 kg/m3, a mass density (283.15 K, 2647 kPa) of 739.4 ± 2 kg/m3 and a mass density (283.15 K, 2708 kPa) of 739.4 ± 2 kg/m3. For the same compound, the mass density (283.15 K, 2730 kPa) was 739.4 ± 2 kg/m3, the mass density (283.15 K, 2749 kPa) was 739.3 ± 2 kg/m3 and the mass density (283.15 K, 2767 kPa) was 739.4 ± 2 kg/m3. The mass density (283.15 K, 2789 kPa) was 739.4 ± 2 kg/m3, the mass density (283.15 K, 2807 kPa) was 739.5 ± 2 kg/m3 and the mass density (283.15 K, 2822 kPa) was 739.5 ± 2 kg/m3. It also gave a mass density (283.15 K, 2835 kPa) of 739.4 ± 2 kg/m3, a mass density (283.15 K, 2864 kPa) of 739.6 ± 2 kg/m3 and a mass density (283.15 K, 3136 kPa) of 739.7 ± 2 kg/m3. The mass density (283.15 K, 3226 kPa) was 739.7 ± 2 kg/m3, the mass density (283.15 K, 3273 kPa) was 739.9 ± 2 kg/m3 and the mass density (283.15 K, 3287 kPa) was 739.8 ± 2 kg/m3. It also gave a mass density (283.15 K, 3296 kPa) of 739.8 ± 2 kg/m3, a mass density (283.15 K, 3307 kPa) of 739.9 ± 2 kg/m3 and a mass density (283.15 K, 3341 kPa) of 739.9 ± 2 kg/m3. It also gave a mass density (283.15 K, 3352 kPa) of 739.8 ± 2 kg/m3, a mass density (283.15 K, 3361 kPa) of 739.8 ± 2 kg/m3 and a mass density (283.15 K, 3373 kPa) of 739.9 ± 2 kg/m3. For the same compound, the mass density (283.15 K, 3380 kPa) was 740 ± 2 kg/m3, the mass density (283.15 K, 3390 kPa) was 739.9 ± 2 kg/m3 and the mass density (283.15 K, 3400 kPa) was 739.8 ± 2 kg/m3. It also gave a mass density (283.15 K, 3408 kPa) of 740 ± 2 kg/m3, a mass density (283.15 K, 3417 kPa) of 739.9 ± 2 kg/m3 and a mass density (283.15 K, 3426 kPa) of 740 ± 2 kg/m3. For the same compound, the mass density (283.15 K, 3434 kPa) was 739.9 ± 2 kg/m3, the mass density (283.15 K, 3443 kPa) was 739.8 ± 2 kg/m3 and the mass density (283.15 K, 3452 kPa) was 740 ± 2 kg/m3. For the same compound, the mass density (283.15 K, 3461 kPa) was 739.9 ± 2 kg/m3, the mass density (283.15 K, 3471 kPa) was 740 ± 2 kg/m3 and the mass density (283.15 K, 3485 kPa) was 740 ± 2 kg/m3. The mass density (283.15 K, 3496 kPa) was 739.9 ± 2 kg/m3, the mass density (283.15 K, 3507 kPa) was 740.1 ± 2 kg/m3 and the mass density (283.15 K, 3517 kPa) was 740 ± 2 kg/m3. For the same compound, the mass density (283.15 K, 3528 kPa) was 739.9 ± 2 kg/m3, the mass density (283.15 K, 3539 kPa) was 740 ± 2 kg/m3 and the mass density (283.15 K, 3552 kPa) was 740 ± 2 kg/m3. The mass density (283.15 K, 3563 kPa) was 740.1 ± 2 kg/m3, the mass density (283.15 K, 3575 kPa) was 740 ± 2 kg/m3 and the mass density (283.15 K, 3586 kPa) was 740.2 ± 2 kg/m3. For the same compound, the mass density (283.15 K, 3601 kPa) was 740 ± 2 kg/m3 and the mass density (283.15 K, 3612 kPa) was 740.1 ± 2 kg/m3.
